Legend:
[1] = tested on: LA cardiomyocytes; assay: ROS production (H2-DCF) in LA cardiomyocytes; assay type: cell-based, rat; conditions: HFpEF
Protocol: ROS production. LA cardiomyocytes were starved of glucose for 1 h at 37° C., loaded with H2-DCF and transferred to an LSM 800 laser scanning microscope. Two-dimensional images (excitation: 488 nm, emission: […]) were acquired for a duration of 30 s (interval: 2 s, resolution: 256×256 px, pixel size: 0.624 μm, pixel time: 8.24 μs, laser intensity: 0.6%). Cells were exposed to 30 mM glucose and another set of images acquired for a duration of 90 s. Image sequences acquired between 0-30 s (glucose starved) and 90-120 s (glucose saturated) were individually assessed. H2-DCF signal intensity (F) of the initial image was defined as F0, reactive oxygen species (ROS) accumulation calculated as ΔF=F−F0 per image, averaged per image sequence and reported as the respective rate ΔF/(F0*t).

[2] = tested on: LA cardiomyocytes; assay: Mitochondrial structure and Ca2+ uptake in LA cardiomyocytes; assay type: cell-based, rat; conditions: HFpEF
Source text: For cell membrane permeabilization and subsequent measurements of mitochondrial Ca^2+ uptake (See ‘Mitochondrial structure and Ca^2+ uptake’) wash and internal solutions were used. Wash solution contained (in mM): 100 potassium acetate, 15 KCl, 0.35 EGTA, 0.75 MgCl2, 10 HEPES; pH adjusted to 7.2 with KOH. Internal solution contained (in mM): 125 KCl, 10 NaCl, 20 HEPES, 5 pyruvate, 2 maleic acid, 2 glutamic acid, 0.5 KH2PO4, 0.5 MgCl2, 5 EGTA, 0.002 free Ca^2+(MaxChelator), 15 BDM, pH adjusted to 7.2 with KOH. For permeabilization, 0.005% saponin was added to the internal solution.
Mitochondrial structure and Ca^2+ uptake. Mitochondrial structure was visualized by local thresholding of two-dimensional images acquired with MitoTracker Red (FIGS. 5A-B, 6D) and MitoTracker Green (FIGS. 4C-F) at an LSM 800 laser scanning microscope (Zeiss, Oberkochen, Germany). The fraction of mitochondria in relation to cell surface was taken as a measure of mitochondrial density. The averaged perimeter to area ratio of mitochondrial structures per cell was calculated as an indicator of mitochondrial fission using a 2-step Otsu thresholding algorithm. See Hohendanner F, Ljubojevic S, MacQuaide N, Sacherer M, Sedej S, Biesmans L, Wakula P, Platzer D, Sokolow S, Herchuelz A et al: “Intracellular dyssynchrony of diastolic cytosolic [Ca(2)(+)] decay in ventricular cardiomyocytes in cardiac remodeling and human heart failure,” Circ Res 2013, 113(5):527-538.
Mitochondrial Ca^2+ uptake was determined as previously described in detail. See Maxwell J T, Tsai C H, Mohiuddin T A, Kwong J Q: “Analyses of Mitochondrial Calcium Influx in Isolated Mitochondria and Cultured Cells,” Journal of visualized experiments: JoVE 2018(134). LA cardiomyocytes were loaded with Rhod-2 AM and MitoTracker green, transferred to an LSM 800 laser scanning microscope and washed twice with sodium and calcium-free wash solution. The cells were then permeabilized with internal solution containing 0.005% saponin for a duration of 30-60 s and consecutively washed twice with nominal Ca^2+ free internal solution containing 5 mM EGTA. Two-dimensional images of Rhod-2 (excitation: 559 nm, emission: 575-675 nm) and MitoTracker green fluorescence (excitation: 488 nm, emission: 505-525 nm) were obtained. The perfusion was switched to internal solution containing 2 μM Ca^2+. After 1 min, a second set of Rhod-2/MitoTracker images was obtained. Following another 1-min interval, a third set of images was obtained to confirm that mitochondrial Ca^2+ uptake had indeed been completed in the second set. A binary mask of mitochondrial structures was derived from MitoTracker green images and positive pixels defined as the region-of-interest for sub-sequent determination of Rhod-2 signal intensity (F). Signal intensity during perfusion with 0 μM Ca^2+ was defined as F0 and changes of [Ca^2+] after exposure to 2 μM Ca^2+ expressed as ΔF=F−F0. The change of mitochondrial density (L.%) was quantified as a measure of mitochondrial swelling.

[3] = rats; 30 mg/kg/day; cited from earlier work
[4] = setting of diabetes; cited from earlier work
[5] = tested on: LA cardiomyocytes; assay: Sarcomere shortening of LA cardiomyocytes; assay type: cell-based, rat
Protocol: Ca^2+ measurements and sarcomere shortening. Radiometric Ca^2+ measurements (excitation: 340 nm and 385 nm, emission: 510±10 nm; [Ca^2+] expressed as the ratio R=F340/F380) were performed either with a CytoCypher MultiCell System (CytoCypher BV, Netherlands; FIGS. 1C-F, 2D-G, 4A-F) or an Axiovert 200 microscope (Zeiss, Oberkochen, Germany) fluorescence imaging assembly (FIGS. 2A-C, 2H-J, 3A-E, 6E-I). LA cardiomyocytes were loaded with Fura-2 for 30 min at room temperature, washed twice with Tyrode solution and transferred to the microscope. Experiments were conducted at 37° C. and CaT were recorded at steady state (following electric stimulation).
CaT and sarcomere shortening of LA and LV cardiomyocytes were recorded for 10 s at 3 Hz stimulation. See FIGS. 2D-G, 4A-F. Electric stimulation was turned off and spontaneous SR Ca^2+ release events (See Voigt N, Heijman J, Wang Q, Chiang D Y, Li N, Karck M, Wehrens X H T, Nattel S, Dobrev D: “Cellular and molecular mechanisms of atrial arrhythmogenesis in patients with paroxysmal atrial fibrillation,” Circulation 2014, 129(2):145-156) (SCaEs) immediately recorded for a duration of 10 s (FIG. 1C-F). In a sub-set of LA cells, CaT were recorded for 10 s at 1 Hz stimulation. Electric stimulation was turned off, the cells immediately exposed to 20 mM caffeine and the sub-sequent caffeine-induced CaT recorded for 10 s (FIG. 2A-C, 3A-E). Sodium-calcium exchanger (NCX) activity was calculated as previously described. See Hohendanner F, Walther S, Maxwell J T, Kettlewell S, Awad S, Smith G L, Lonchyna V A, Blatter L A: “Inositol-1,4,5-trisphosphate induced Ca^2+ release and excitation-contraction coupling in atrial myocytes from normal and failing hearts,” J Physiol 2015, 593(6):1459-1477.

In the case of `CCOc1ccc(Cc2cc([C@@H]3O[C@H](SC)[C@@H](O)[C@H](O)[C@H]3O)ccc2Cl)cc1` [sotagliflozin, (2S,3R,4R,5S,6R)-2-(4-chloro-3-(4-ethoxybenzyl)phenyl)-6-(methylthio)tetrahydro-2H-pyran-3,4,5-triol], the “decrease of ROS production after reintroduction of glucose” value ([1]; 30 mM glucose) is reported as “this effect could not be observed”, the ROS production ([1]; after 1 h glucose starvation) is reported as “significantly reduced” and the “increased density of mitochondria in LA cardiomyocytes” value [2] is reported as “prevented”. For the same compound, the “increase of mitochondrial Ca2+ uptake” value ([2]; Sota vs vehicle) was “two-fold increase”, the mitochondrial fission ([2]; after 1 h glucose starvation) was “significantly reduced” and the swelling of mitochondria ([2]; after exposure to 2 μM Ca2+) was “this effect did not occur”. The “mitochondrial Ca2+ uptake” value ([2]; permeabilized cells, exposure from 0 μM to 2 μM Ca2+, vehicle 0.84±0.07) was 1.76±0.27 AF/F0, the urinary glucose secretion [3] was “near maximal” and the “effects on blood pressure and body weight” value [4] was “beneficial effects”. The “shortening of time-to-peak and relaxation time” value ([5]; HFpEF) was “this effect could not be observed”, the diastolic sarcomere length ([5]; HFpEF, 3 Hz, 5 mM extracellular [Ca2+]) was “significant increase” and the “Ca2+ sensitivity” value ([5]; HFpEF, relationship of CaT and sarcomere shortening) was “reduced”. For the same compound, the sarcomere relaxation time ([5]; WT) was “shortened” and the sarcomere shortening time-to-peak ([5]; WT) was “shortened”.
